Several values for one entry are separate records, joined by “and”; a condition that tells them apart may be missing. Identical values can stand only once. Like-named read-outs stand apart in the source and are kept apart here. One block for each compound: values may come before it.
Experiments:
[1] = pH-potentiometric titration (pKa); assay type: physicochemical
Experimental: An ECO automatic titrator (Metrohm AG, Herisau, Switzerland) with a Metrohm 6.0234.110 combined pH glass electrode was used for the potentiometric titrations under automatic PC control. The electrode was calibrated with aqueous standard buffer solutions. Constant temperature (298.15 ± 0.1 K) was provided by a thermostated double-walled glass cell. Difference titrations were carried out in the absence (blank) and presence of the titrand. First, 2 mL of 0.1 mol/L HCl solutions were titrated with 0.1 mol/L KOH. A constant ionic strength of 0.15 mol/L was provided by the presence of KCl. Next, a titrand was added to the same volume of HCl solution and subsequently titrated with KOH. The initial concentration of the titrand was around between 3 and 6 mmol/L in the titrations. Non-linear parameter fitting provided the dissociation constants from the interpolated volume differences. Potentiometric titrations were performed in triplicates, and the resulting pKa values are reported with ± standard error of the three fitted values.

[2] = 1H NMR-pH titration (macroscopic and microscopic pKa); assay type: physicochemical; conditions: for pKa: H2O/D2O 95:5 (v/v); for predominant protonation/charge form at physiological pH: physiological pH (7.4), from the determined acid-base constants; for pKaC^A (NMR): second step dissociation microconstant of the aromatic ammonium group; for pKaA^C (NMR): second step dissociation microconstant of the carboxyl group
Experimental: NMR spectra were recorded on a 400 MHz Varian Mercury Plus spectrometer equipped with a 5 mm Varian 400 Automation Triple Resonance Broadband Pulsed Field Gradient probe at 298.15 ± 0.1 K. The solvent was H2O/D2O 95:5 (v/v), the solution contained around 5 mmol/L titrand, and the ionic strength was adjusted to 0.15 mol/L. The pH values were adjusted with 2–5 mol/L HCl or NaOH (in order to avoid substantial dilution of the solution) and determined in situ by internal indicator molecules optimized for ^1H NMR [27, 28]. The sample volume was 500 μL containing DSS (3-(trimethylsilyl)propane-1-sulfonate) as a chemical shift reference. The H2O ^1H signal was suppressed with a WET sequence; the average acquisition parameters for ^1H measurements are number of transients = 8, number of points = 65,536, acquisition time = 3.33 s, and relaxation delay = 1.5 s. All spectra were processed using the MestReNova v9.0.1-13254 (Mestralab Research, S.L., Santiago de Compostela, Spain) software. NMR-pH titrations were performed once, and resulting pKa values are reported with ± standard error of the model fit.
The corollary of this assumption is not so obvious, however: the aliphatic ^1H NMR signals are relatively close to the aromatic amino group (in terms of covalent distance), especially the methylene group (5 covalent distance), therefore selectivity of aliphatic ^1H NMR signals in favor of aliphatic ammonium and carboxyl dissociation is dubious. This, however, can be exploited: the titration curve of the methylene group thus affords all three macroconstants, including Ka1, Ka2 in the acidic region (Equation (1)), while the aromatic and αCH ^1H NMR signals selectively afford the microconstants KaC^A (second step dissociation microconstant of the aromatic ammonium group), KaA^C (second step dissociation microconstant of the carboxyl group) (Equation (2)). […] Note that Equation (2) in its current form applies to the titration curves of the aromatic signals; for the αCH signal, Equation (2) is rewritten with KaC^A and KaA^C exchanged. For the curve fitting of Equation (2), the macroconstants are treated as fixed parameters transferred from the fitting of Equation (1).(1) δobs=δL+δHL·Ka2·10^−pH+δH2L·Ka1·Ka2·10^−2·pH/1+Ka2·10^−pH+Ka1·Ka2·10^−2·pH (2) δobs=δL·1+KaCA·10^−pH+δHL·KaAC·10^−pH+Ka1·Ka2·10^−2·pH/1+Ka2·10^−pH+Ka1·Ka2·10^−2·pH
The remaining dissociation microconstants (Ka^C and Ka^A) were calculated using Equation (3). Modern theoretical considerations of acid-base microconstant determination can be found in the works of Noszál and Borkovec, while some examples can be found in recent works.(3) pKa1+pKa2=pKaA+pKaAC=pKaC+pKaCA
The titration of 3-hydroxykynurenine (Figure 5) was treated the same way as for kynurenine, with the difference that 3-hydroxykynurenine has an overlapping dissociation in the basic pH region as well (the primary aliphatic ammonium dissociation overlaps with the dissociation of the phenol group). The same principle can be applied to the macro- and microconstant determination of kynurenine; only the last two macroconstants were transferred from potentiometric titration data since the latter is more precise than NMR-pH determined values and the chemical shift response of the methylene group towards the phenol dissociation (6 covalent distance) is not expected to be reliable. Otherwise, the microconstants of the basic pH range (KaACN^O—phenol group, KaACO^N—primary aliphatic ammonium group) were determined by fitting an analog (featuring Ka3 and Ka4) of Equation (2) to the titration data of all ^1H NMR signals. Note that the fitted pKaACN^O falls very close to the calculated pKaAC^N; therefore, to ensure a decreasing sequence of Ka values in every microscopic protonation pathway, an additional constraint was used during fitting: pKaACN^O be greater than the mean of pKa3 and pKa4. […]

UV-pH titration (pKa) = assay type: physicochemical; conditions: for pKa: aqueous HCl/NaOH solutions of varying pH
Experimental: UV spectroscopic measurements were carried out on a Jasco V-550 diode-array spectrometer (Jasco Ltd., Tokyo, Japan) with 10 mm quartz cuvettes at 298 K. The titrand was diluted with an acidic (HCl) and a basic (NaOH) stock solution to the same analyte concentration (adjusting ionic strength to 0.15 mol/L). In the case of kynurenic acid, a saturated acidic solution was diluted 10 times with HCl and NaOH, respectively, to obtain the stock solutions. Sample solutions with varying pH were prepared by mixing the two stock solutions in varying ratios. pH values were read on a Metrohm 2.780.0010 precision pH meter with a 6.0258.600 Unitrode glass Pt 1000 electrode (Metrohm AG, Herisau, Switzerland), and the pH-potentiometric system was calibrated using standard buffer solutions.

ROS = tested on: ROS; design: method as in PMID 21763768; conditions: cited from earlier work
[3] = cited from earlier work; for pKa (first value) / pKa (second value): no mention of experimental methods
[4] = in vitro parallel permeability assay (PAMPA); assay type: in vitro ADME; conditions: passive transport only
Experimental: To further obtain additional information regarding the microspeciation scheme, the synthesis of methyl ester derivatives was attempted since these model compounds could provide the value of microconstants for cases where the carboxylic acid group is undissociated. […] In the first attempt, the compounds were each dissolved with 1-ethyl-3-(3-dimethylaminopropyl)carbodiimide (EDAC) and triethylamine in dichloromethane, and after fifteen minutes, methanol was added to the mixture, which was stirred overnight at room temperature. After this, the solution was washed with saturated sodium bicarbonate solution and distilled water. The organic phase was dried over sodium sulfate and then removed from the rotary evaporator. In the second attempt, the compounds were each dissolved in methanol, and the solution was cooled to 0 °C. Thionyl chloride was added dropwise, and the mixture was stirred at the same temperature for four hours. Then, the solvent was removed from the rotary evaporator, yielding an oily residue. […] The measurement of lipophilicity and membrane penetration of kynurenine and 3-hydroxykynurenine was also attempted; however, due to the extremely low predicted logP value of these compounds, it was not unexpected that obtaining such experimental data would not be feasible. […]

[5] = aqueous HCl solution with KCl, titrated with KOH, unreliable, since two values could not be fitted, read-out: single pKa fitted in the acidic pH region (pH potentiometry titration)
[6] = first step microconstant of the aromatic ammonium group, calculated using Equation (3), read-out: pKa^A
[7] = first step microconstant of the carboxyl group, calculated using Equation (3), read-out: pKa^C
[8] = macroconstant from methylene signal, 298.15 K, ionic strength 0.15 mol/L, read-out: pKa1 (NMR)
[9] = macroconstant from methylene signal, 298.15 K, ionic strength 0.15 mol/L, read-out: pKa2 (NMR)

pKa ([1]; aqueous HCl solution with KCl, titrated with KOH, macroconstant, 298.15 K, ionic strength 0.15 mol/L, read-out: pKa3 (potentiometry)): 8.65
pKa ([1]; aqueous HCl solution with KCl, titrated with KOH, macroconstant, 298.15 K, ionic strength 0.15 mol/L, read-out: pKa4 (potentiometry)): 9.55
pKa [1, 5]: 2.53 ± 0.03
pKa [2, 6]: 1.82
pKa [2, 7]: 1.91
pKa [2, 8]: 1.56
pKa [2, 9]: 2.69
pKaAC^N ([2]; microconstant of the aliphatic ammonium group, phenol still protonated, calculated): 9.08
pKaAC^O ([2]; microconstant of the phenol group, aliphatic ammonium still protonated, calculated): 8.85
pKaACN^O (NMR) ([2]; microconstant of the phenol group, basic pH range, fit constrained to exceed mean of pKa3 and pKa4): 9.12
pKaACO^N (NMR) ([2]; microconstant of the primary aliphatic ammonium group, basic pH range): 9.35
predominant protonation/charge form at physiological pH [2]: zwitterionic form
pKaC^A (NMR) [2]: 2.34
pKaA^C (NMR) [2]: 2.43
SMILES: Nc1c(O)cccc1C(=O)CC(N)C(=O)O (stereo not shown) [3-hydroxykynurenine]

pKa ([1]; aqueous HCl solution with KCl, titrated with KOH, value is unreliable due to precipitate formation, read-out: pKa fitted (pH potentiometry titration)): 3.1 ± 0.1
solubility behaviour during titration ([1]; below pH 3, no issue above pH 3): precipitation
pKa (UV-pH titration (pKa); 10-fold diluted saturated solution, 298 K, ionic strength 0.15 mol/L, read-out: pKa (UV-pH titration, full spectrum measurement)): 2.44 ± 0.02
pKa (UV-pH titration (pKa); single dissociation step, UV-pH titration, 298 K, ionic strength 0.15 mol/L, read-out: pKa1 (UV)): ~2.4
pKa1 (UV) (UV-pH titration (pKa); single dissociation step, UV-pH titration, 298 K, ionic strength 0.15 mol/L): 2.43
dissociation step above pH 7 until 13 ([2]; potentiometric and NMR-pH titration attempts): no dissociation step
SMILES: O=C(O)c1cc(=O)c2ccccc2[nH]1 [kynurenic acid]
concentration that can abolish iron(II) sulfate-induced ROS production (ROS): exceeding 100 µM
pKa of the radical form ([3]; radical form): 5.5

pKa ([1]; aqueous HCl solution with KCl, titrated with KOH, 298.15 K, ionic strength 0.15 mol/L, read-out: pKa fitted in the basic pH region (pH potentiometry titration)): 9.13 ± 0.02
pKa [1, 5]: 2.39 ± 0.04
pKaC^A (UV-pH titration) (UV-pH titration (pKa); second step dissociation microconstant of the aromatic ammonium group): 2.08 ± 0.2
pKaA^C (UV-pH titration) (UV-pH titration (pKa); second step dissociation microconstant of the carboxyl group): 2.33 ± 0.05
pKa [2, 6]: 1.39
pKa [2, 7]: 1.63
pKa [2, 8]: 1.19
pKa [2, 9]: 2.49
pKa ([2]; macroconstant, aliphatic ammonium, 298.15 K, ionic strength 0.15 mol/L, read-out: pKa3 (NMR)): 9.33
predominant protonation/charge form at physiological pH [2]: zwitterionic form
pKaC^A (NMR) [2]: 2.05 ± 0.04 and 2.05
pKaA^C (NMR) [2]: 2.29 ± 0.03 and 2.29
SMILES: Nc1ccccc1C(=O)C[C@H](N)C(=O)O [kynurenine]
membrane penetration/retention (PAMPA) [4]: no detectable membrane penetration/retention

pKa ([1]; aqueous HCl solution with KCl, titrated with KOH, triplicate, ± standard error, 298.15 K, ionic strength 0.15 mol/L, read-out: pKa2 (potentiometry)): 5.22 ± 0.01
pKa ([1]; aqueous HCl solution with KCl, titrated with KOH, extreme acidic pKa of the carboxyl group, rough estimate, single nonlinear curve fit, 298.15 K, ionic strength 0.15 mol/L, read-out: pKa1 (by extrapolation of potentiometry)): ~0.63
pKa ([1]; aqueous solution, ionic strength 0.15 mol/L, both titration techniques, 298.15 K, ionic strength 0.15 mol/L, read-out: pKa2 (mean of potentiometry and NMR)): ~5.2
pKa2 (mean of potentiometry and NMR) ([1]; both titration techniques, 298.15 K, ionic strength 0.15 mol/L): 5.21
pKa1 (by extrapolation of potentiometry) ([1]; extreme acidic pKa of the carboxyl group, rough estimate, single nonlinear curve fit, 298.15 K, ionic strength 0.15 mol/L): ~0.6
pKa ([2]; ± standard error of fit, 298.15 K, ionic strength 0.15 mol/L, H2O/D2O 95:5, read-out: pKa (NMR-pH titration)): 5.19 ± 0.02
pH of a further dissociation step indicated by shift of NMR signals ([2]; slight systematic shift below pH 1.5, outside the range of determination): < 1
SMILES: O=C(O)c1ccccn1 [picolinic acid]
pKa (first value) ([3]; ref 25): 1.0
pKa (second value) ([3]; ref 25): 5.4
pKa (first value) ([3]; ref 26): 1.07
pKa (second value) ([3]; ref 26): 5.25
